Data from patent US10570122B2, “Compounds with anti-tumoral activity” (AB Science, priority 2015, dated 2020).

Columns and labels:
HL60 = test: CellTiter-Blue cell-based survival/proliferation assay, HL60; details: Homo sapiens, HL-60, Leukemia cell line HL60, 48 h, read-out: Anti-tumoral activity (measured IC50) HL60
How it was run: (§1)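 Compounds, diluted tenfold serially over 0–10 μM, are applied to 1·10^4 seeded cells per well for 48 h at 37 °C. Resorufin formed during a further 4 h with CellTiter-Blue is detected by fluorescence emission at 590 nm.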

HUT78 = test: CellTiter-Blue cell-based survival/proliferation assay, HUT78; details: Homo sapiens, Lymphoma cell line HUT78, 48 h, read-out: Anti-tumoral activity (measured IC50) HUT78
How it was run: as §1

KARPAS299 = test: CellTiter-Blue cell-based survival/proliferation assay, KARPAS299; details: Homo sapiens, KARPAS-299, Lymphoma cell line KARPAS299, 48 h, read-out: Anti-tumoral activity (measured IC50) KARPAS299
How it was run: as §1

REC1 = test: CellTiter-Blue cell-based survival/proliferation assay, REC1; details: Homo sapiens, Lymphoma cell line REC1, 48 h, read-out: Anti-tumoral activity (measured IC50) REC1
How it was run: as §1

OPM2 = test: CellTiter-Blue cell-based survival/proliferation assay, OPM2; details: Homo sapiens, OPM-2, Myeloma cell line OPM2, 48 h, read-out: Anti-tumoral activity (measured IC50) OPM2
How it was run: as §1

A498 = test: CellTiter-Blue cell-based survival/proliferation assay, A498; details: Homo sapiens; A498 kidney tumor cell line, 48 h
How it was run: as §1

A549 = test: CellTiter-Blue cell-based survival/proliferation assay, A549; details: Homo sapiens; A549 lung tumor cell line, 48 h
How it was run: as §1

ACHN = test: CellTiter-Blue cell-based survival/proliferation assay, ACHN; details: Homo sapiens; ACHN kidney tumor cell line, 48 h
How it was run: as §1

AGS = test: CellTiter-Blue cell-based survival/proliferation assay, AGS; details: Homo sapiens; AGS stomach tumor cell line, 48 h
How it was run: as §1

BT20 = test: CellTiter-Blue cell-based survival/proliferation assay, BT20; details: Homo sapiens, BT-20; BT20 breast tumor cell line, 48 h
How it was run: as §1

BXPC3 = test: CellTiter-Blue cell-based survival/proliferation assay, BXPC3; details: Homo sapiens, BXPC-3; BXPC3 pancreas tumor cell line, 48 h
How it was run: as §1

CALU6 = test: CellTiter-Blue cell-based survival/proliferation assay, CALU6; details: Homo sapiens, Calu-6; CALU6 lung tumor cell line, 48 h
How it was run: as §1

CLS354 = test: CellTiter-Blue cell-based survival/proliferation assay, CLS354; details: Homo sapiens, CLS-354; CLS354_4 head & neck tumor cell line, 48 h
How it was run: as §1

DLD1 = test: CellTiter-Blue cell-based survival/proliferation assay, DLD1; details: Homo sapiens, DLD-1; DLD_1 colorectal tumor cell line, 48 h
How it was run: as §1

DU145 = test: CellTiter-Blue cell-based survival/proliferation assay, DU145; details: Homo sapiens, DU-145; DU145 prostate tumor cell line, 48 h
How it was run: as §1

H1299 = test: CellTiter-Blue cell-based survival/proliferation assay, H1299; details: Homo sapiens, NCI-H1299; H1299 lung tumor cell line, 48 h
How it was run: as §1

HCT116 = test: CellTiter-Blue cell-based survival/proliferation assay, HCT116; details: Homo sapiens, HCT-116; HCT116 colorectal tumor cell line, 48 h
How it was run: as §1

HEP2 = test: CellTiter-Blue cell-based survival/proliferation assay, HEP2; details: Homo sapiens, HEp-2; HEP2 head & neck tumor cell line, 48 h
How it was run: as §1

HEPG2 = test: CellTiter-Blue cell-based survival/proliferation assay, HEPG2; details: Homo sapiens; HEPG2 liver tumor cell line, 48 h
How it was run: as §1

HGC27 = test: CellTiter-Blue cell-based survival/proliferation assay, HGC27; details: Homo sapiens, HGC-27; HGC27 stomach tumor cell line, 48 h
How it was run: as §1

MDAMB231 = test: CellTiter-Blue cell-based survival/proliferation assay, MDAMB231; details: Homo sapiens, MDA-MB-231; MDAMB231 breast tumor cell line, 48 h
How it was run: as §1

MESSA = test: CellTiter-Blue cell-based survival/proliferation assay, MESSA; details: Homo sapiens, MES-SA; MESSA ovary tumor cell line, 48 h
How it was run: as §1

PANC1 = test: CellTiter-Blue cell-based survival/proliferation assay, PANC1; details: Homo sapiens, PANC-1; PANC_1 pancreas tumor cell line, 48 h
How it was run: as §1

PC3 = test: CellTiter-Blue cell-based survival/proliferation assay, PC3; details: Homo sapiens, PC-3; PC3 prostate tumor cell line, 48 h
How it was run: as §1

PLCPRF5 = test: CellTiter-Blue cell-based survival/proliferation assay, PLCPRF5; details: Homo sapiens, PLC-PRF-5; PLC_PRF5 liver tumor cell line, 48 h
How it was run: as §1

SW579 = test: CellTiter-Blue cell-based survival/proliferation assay, SW579; details: Homo sapiens; SW579 head & neck tumor cell line, 48 h
How it was run: as §1

TOV112D = test: CellTiter-Blue cell-based survival/proliferation assay, TOV112D; details: Homo sapiens; TOV112D ovary tumor cell line, 48 h
How it was run: as §1

[1] = test system: human kinases (456 kinases); test: KINOMEscan in vitro kinase profiling; type: binding
Experimental: An in vitro kinase profiling was conducted in order to evidence the absence of protein kinase inhibition by the compounds of the invention.
DiscoveRx (Ambit Biosciences) has developed a high-throughput system (KINOMEscan™) for screening of compounds against large numbers of human kinases (456 kinases).
The compounds of the invention were screened at the concentration of 1 μM, and results for primary screen binding interactions were reported as percent control (% Ctrl), where lower numbers indicate stronger hits. DMSO is used as a negative control (100% Ctrl) while a high affinity compound is used as a positive control (0% Ctrl). % Ctrl is calculated as follow:
[formula] Selectivity Score or S-score is a quantitative measure of compound selectivity. It is calculated by dividing the number of kinases that compounds bind to by the total number of distinct kinases tested, excluding mutant variants. S(10)=(number of kinases with % Ctrl<10)/(number of kinases tested), S(1)=(number of kinases with % Ctrl<1)/(number of kinases tested).

[2] = test system: panel of about 34 human tumor cell lines; test: Cell-based proliferation screening on panel of tumor cell lines; details: solid tumor cell line, cell line unknown, 48 h, read-out: IC50, solid tumor cell line of column 6 (last section of Table 3)
How it was run: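 CellTiter-Blue survival assay with 1·10^4 cells/well, each line treated 48 h at 37° C with 1/10 serial dilutions from 0 to 10 μM. Resorufin formed during a 4 h reagent incubation is read by fluorescence at 590 nm. A cell-free blank serves as background.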

A375 = test: CellTiter-Blue cell-based survival/proliferation assay, A375; details: Homo sapiens, A-375; A375 melanoma cell line, 48 h
Experimental: (§2) Cell-Based Proliferation Screening of Compounds
(§3) CellTiter-Blue cell-based survival/proliferation assay (Promega G8080) was performed on tumor cell lines. A total of 1·10^4 cells/well/50 μl were seeded in a 96-wells plate. Treatment was initiated by addition of a 2× drug solution of 1/10 serial dilutions ranging from 0 to 10 μM. Cells were grown for 48 h at 37° C. and then incubated with 10 μl/well of Promega CellTiter-Bleue reagent for 4 h at 37° C. The amount of resorufin dye formed was quantified by its fluorescence emission at 590 nm using a scanning multiwell spectrophotometer (OPTIMA, BMG labtech, France). A blank well without cells was used as a background control for the spectrophotometer.

A4513 = test: CellTiter-Blue cell-based survival/proliferation assay, A4513; details: Homo sapiens; A4513 Ewing cell line, 48 h
Experimental: as §2, §3

MELWO = test: CellTiter-Blue cell-based survival/proliferation assay, MELWO; details: Homo sapiens; MEL_WO melanoma cell line, 48 h
Experimental: as §2, §3

U118 = test: CellTiter-Blue cell-based survival/proliferation assay, U118; details: Homo sapiens; U118 glioblastoma cell line, 48 h
Experimental: as §2, §3

U2OS = test: CellTiter-Blue cell-based survival/proliferation assay, U2OS; details: Homo sapiens; U2OS osteosarcoma cell line, 48 h
Experimental: as §2, §3

U87MG = test: CellTiter-Blue cell-based survival/proliferation assay, U87MG; details: Homo sapiens, U-87 MG; U87_MG glioblastoma cell line, 48 h
Experimental: as §2, §3

| SMILES | IC50 (HL60) | IC50 (OPM2) | IC50 (A498) | IC50 (ACHN) | IC50 (AGS) | IC50 (BT20) | IC50 (BXPC3) | IC50 (CALU6) | IC50 (CLS354) | IC50 (DLD1) | IC50 (DU145) | IC50 (H1299) | IC50 (HCT116) | IC50 (HEP2) | IC50 (HEPG2) | IC50 (HGC27) | IC50 (MDAMB231) | IC50 (MESSA) | IC50 (PANC1) | IC50 (PC3) | also measured |
| --- | --- | --- | --- | --- | --- | --- | --- | --- | --- | --- | --- | --- | --- | --- | --- | --- | --- | --- | --- | --- | --- |
| CCOCc1ccc(C)c(Nc2ncc(-c3ccc(-n4cccn4)cc3)o2)c1 [Example 033, (5-Ethoxymethyl-2-methyl-phenyl)-[5-(4-pyrazol-1-yl-phenyl)-oxazol-2-yl]-amine] | ≤ 0.1 µM | ≤ 0.1 µM | 0.1 to 0.5 µM | ≤ 0.1 µM | ≤ 0.1 µM | 0.1 to 0.5 µM | 0.1 to 0.5 µM | ≤ 0.1 µM | ≤ 0.1 µM | ≤ 0.1 µM | > 1 µM | > 1 µM | 0.1 to 0.5 µM | ≤ 0.1 µM | 0.5 to 1 µM | ≤ 0.1 µM | > 1 µM | 0.1 to 0.5 µM | > 1 µM | ≤ 0.1 µM | IC50 (HUT78): ≤ 0.1 µM; IC50 (KARPAS299): ≤ 0.1 µM; IC50 (REC1): ≤ 0.1 µM; IC50 (A549): > 1 µM; IC50 (PLCPRF5): 0.5 to 1 µM; IC50 (SW579): > 1 µM; IC50 (TOV112D): ≤ 0.1 µM; Interaction with the 456 kinases tested ([1]; screened at 1 μM): do not efficiently interact; Number of hits/number of kinases, S1 ([1]; tested at 1 μM, S(1): kinases with % Ctrl<1): 0/456; S-score, S1 ([1]; tested at 1 μM, S(1)=(number of kinases with % Ctrl<1)/(number of kinases tested)): 0.000; Number of hits/number of kinases, S10 ([1]; tested at 1 μM, S(10): kinases with % Ctrl<10): 1/456; S-score, S10 ([1]; tested at 1 μM, S(10)=(number of kinases with % Ctrl<10)/(number of kinases tested)): 0.002; Kinase targets, S10 ([1]; tested at 1 μM, kinases with % Ctrl<10): CDKL3; IC50 [2]: ≤ 0.1 µM |
| CCOCc1ccc(C)c(Nc2nnc(-c3ccc(N4CCNC4=O)cc3)o2)c1 [Example 008, 1-{4-[5-(5-Ethoxymethyl-(2-methyl-phenylamino))-[1,3,4]oxadiazol-2-yl]-phenyl}-imidazolidin-2-one] | ≤ 0.1 µM | ≤ 0.1 µM | > 1 µM | ≤ 0.1 µM | > 1 µM | > 1 µM | > 1 µM | > 1 µM | 0.1 to 0.5 µM | > 1 µM | > 1 µM | > 1 µM | ≤ 0.1 µM | ≤ 0.1 µM | > 1 µM | 0.5 to 1 µM | > 1 µM | > 1 µM | > 1 µM | ≤ 0.1 µM | IC50 (HUT78): ≤ 0.1 µM; IC50 (KARPAS299): ≤ 0.1 µM; IC50 (REC1): ≤ 0.1 µM; IC50 (A375): ≤ 0.1 µM; IC50 (A4513): > 1 µM; IC50 (MELWO): 0.5 to 1 µM; IC50 (PLCPRF5): > 1 µM; IC50 (SW579): 0.5 to 1 µM; IC50 (TOV112D): ≤ 0.1 µM; IC50 (U118): > 1 µM; IC50 (U2OS): > 1 µM; IC50 (U87MG): > 1 µM |
| CCOCc1ccc(C)c(Nc2nnc(-c3ccc(-n4cccn4)cc3)o2)c1 [Example 009, (5-Ethoxymethyl-2-methyl-phenyl)-[5-(4-pyrazol-1-yl-phenyl)-[1,3,4]oxadiazol-2-yl]-amine] | > 1 µM | > 1 µM | > 1 µM | > 1 µM | > 1 µM | > 1 µM | > 1 µM | > 1 µM | > 1 µM | > 1 µM | > 1 µM | > 1 µM | > 1 µM | > 1 µM | > 1 µM | > 1 µM | > 1 µM | > 1 µM | > 1 µM | > 1 µM | IC50 (A375): > 1 µM; IC50 (A4513): > 1 µM; IC50 (A549): > 1 µM; IC50 (MELWO): > 1 µM; IC50 (PLCPRF5): > 1 µM; IC50 (SW579): > 1 µM; IC50 (TOV112D): > 1 µM; IC50 (U118): > 1 µM; IC50 (U2OS): > 1 µM; IC50 (U87MG): > 1 µM |
